Data on twelve compounds can be found in PubChem BioAssay (NCI).

Test in all cases: DTP human tumour cell line panel, 48 h
Assay [1] relates to RPMI-8226 leukemia.
The test system of assay [2] is SK-MEL-2 melanoma.
For assay [3], the system named is SF-295 CNS.
Assay [4] has as its system MDA-MB-231 breast.
Assay [5] relates to OVCAR-3 ovarian.
Assay [6] has as its system OVCAR-8 ovarian.
For assay [7], the system named is RXF 393 renal.
The test system of assay [8] is HCT-15 colon.
Assay [9] deals with K-562 leukemia.
For assay [10], the system named is U251 CNS.

Values joined by “and” are separate entries in the source; they are usually repeats but may differ in a detail not shown here. Identical values can stand only once.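 1) Cells in 96-well plates. 2) Compound, 48 h, 5 concentrations. 3) Linear interpolation between surrounding doses. 4) Unreached endpoint = highest concentration. GI50 = concentration required for 50% inhibition of growth. At the TGI there is no net growth.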

Consider `COc1cc(-c2cn(-c3ccc(Cl)cc3)c(=O)[nH]2)cc(OC)c1OC`, for which the GI50 in assay [1], in [2], in [3], in assay [4], in [5] and in assay [6] was above 100 µM in each case. Further, the GI50 (in general, the concentration that inhibits growth by half) is above 100 µM in assay [7], above 100 µM in assay [8], 52.1 µM in assay [9] and above 100 µM in assay [10]. In addition, the TGI in assay [1], in assay [2], in assay [3], in assay [4], in assay [5] and in [6] was above 100 µM each time. For the same compound, the TGI in assay [7], in [8], in assay [9] and in [10] was above 100 µM in each case.
In the case of `C#CC[C@H](c1nc2cc(Cl)ccc2c(=O)n1Nc1ccccc1)N(CCCN)C(=O)c1cccc(Cl)c1F`, the GI50 in [1] was 0.131 µM; in assay [2], 0.177 µM; in assay [3], 0.353 µM; in assay [4], 0.107 µM; in [5], 0.242 µM; in assay [6], 0.511 µM. For the same compound, the GI50 was 0.284 µM in assay [7], 2.15 µM in assay [8], 0.0968 µM in [9] and 0.293 µM in [10]. The TGI (usually the concentration giving total growth inhibition) in assay [1] is 1.16 µM; in assay [2], 1.29 µM; in assay [3] it was 1.48 µM; in assay [4], 0.601 µM; in [5], 1.19 µM; in assay [6], 1.98 µM. Moreover, the total growth inhibition concentration (TGI) was found to be 1.37 µM in [7], 5.68 µM in assay [8], 1.85 µM in assay [9] and 1.27 µM in assay [10].
`Cc1ccc(C(=O)N/N=C/c2cccc(Oc3ccccc3)c2)cn1`: the GI50 in assay [1] was 2.66 µM; in [2] it was above 24.6 µM; in assay [3], 3.36 µM; in assay [4], 22.9 µM; in assay [5], 5.96 µM; in [6] it was 15.8 µM. In addition, the GI50 in [7] was 18.9 µM; in assay [8] it was 3.89 µM; in assay [9] it was 1.81 µM; in assay [10], 6.03 µM. Besides, the TGI is 8.58 µM in assay [1]; above 100 µM in assay [2]; above 36.5 µM in [3]; above 100 µM in [4]; above 100 µM in assay [5]; above 100 µM in [6]. Moreover, the TGI in assay [7], in assay [8], in assay [9] and in assay [10] was above 100 µM throughout.
`NC(=O)C1=C(c2ccccc2)c2ccccc2C1=O`: the TGI came out at 72.4 µM in assay [1]; 39.7 µM in assay [2]; 41.9 µM in assay [3]; 32.4 µM in [4]; 24.6 µM in assay [5]; 31 µM in [6]. Further, the TGI in assay [7] was 35.9 µM; in assay [8], 26.8 µM; in assay [9], above 100 µM; in assay [10] it was 35.1 µM.
On to `CO/N=C1/NC(=O)/C(=C/c2ccc3ncccc3c2)S1`, for which the GI50 in [1] is above 25 µM; in [2] it was 12.1 µM; in [3], 19.9 µM; in assay [4] it was above 25 µM; in [5] it was 11.1 µM; in assay [6], above 22.6 µM. Also, the GI50 is 9.81 µM in [7], 9.13 µM in [8], above 25 µM in [9] and 9.39 µM in [10]. In addition, the TGI in assay [1], in [2], in [3], in assay [4], in assay [5] and in assay [6] was above 25 µM each time. Besides, the TGI in assay [7], in assay [8], in assay [9] and in [10] was above 25 µM each time.
As to `Cn1c(=O)c2[nH]c(COCc3nc4c([nH]3)c(=O)n(C)c(=O)n4C)nc2n(C)c1=O`, the TGI in assay [1], in assay [2], in assay [3], in assay [4], in assay [5] and in assay [6] was above 100 µM throughout. Moreover, the concentration for total growth inhibition (TGI) in assay [7], in assay [8], in assay [9] and in assay [10] was above 100 µM throughout.
As to `CN(/N=N/c1nc(OCc2ccccc2)c2[nH]cnc2n1)C(=O)N(C)/N=N/c1nc(OCc2ccccc2)c2[nH]cnc2n1`, the GI50 in assay [1] was 38.1 µM; in assay [2], 65.3 µM; in assay [3], 32.4 µM; in [4] it was 41.2 µM; in assay [5], 34.8 µM; in assay [6], 51 µM. Besides, the GI50 was 79.9 µM in [7], 35.4 µM in assay [8], 75.8 µM in assay [9] and 49.9 µM in assay [10]. The TGI in assay [1], in [2], in [3], in assay [4], in [5] and in assay [6] was above 100 µM each time. In addition, the TGI in assay [7], in assay [8], in assay [9] and in assay [10] was above 100 µM in each case.
As to `CC1(C)N=C(N)N=C(N)N1c1cccc(CCCCc2ccc(S(=O)(=O)F)cc2Cl)c1`, the GI50 was 10.8 µM in assay [1]; 6.42 µM in assay [2]; 2.44 µM in assay [3]; 10.9 µM in [4]; 5.37 µM in assay [5]; 6.17 µM in assay [6]. For the same compound, the GI50 is 9.46 µM in assay [7], 4.61 µM in assay [8], 3.42 µM in assay [9] and 0.722 µM in assay [10]. Further, the TGI is 41.9 µM in assay [1]; above 58.5 µM in assay [2]; above 38.8 µM in [3]; 43.1 µM in assay [4]; 34.1 µM in assay [5]; above 61.4 µM in assay [6]. For the same compound, the TGI is above 87.3 µM in [7], above 100 µM in assay [8], above 100 µM in [9] and 20.4 µM in assay [10].
With `Cc1nn2c(/C=C3/C(=O)Nc4ccc(Cl)cc43)c(-c3ccccc3)nc2s1`, the GI50 in [1] was 2.94 µM; in assay [2], 4.04 µM; in [3] it was 2.02 µM; in assay [4] it was 2.29 µM; in [5] it was 2.79 µM; in assay [6], 2.19 µM. Besides, the GI50 in assay [7] is 1.91 µM; in [8], 4.65 µM; in assay [9] it was 3.85 µM; in [10], 1.73 µM. Also, the TGI in assay [1] was 22.1 µM; in assay [2], 18.4 µM; in assay [3], 5.76 µM; in assay [4], 8.41 µM; in assay [5], 13 µM; in assay [6], 5.76 µM. The TGI in [7] came out at 4.71 µM; in [8], 31.9 µM; in assay [9], 20.6 µM; in assay [10] it was 3.71 µM.
With `Cc1ccc(NS(=O)(=O)c2cc(C)ccc2C)cc1`, the GI50 is 12.7 µM in assay [1]; 3.2 µM in assay [2]; 2.62 µM in [3]; 4.44 µM in assay [4]; 2.53 µM in assay [5]; 5.94 µM in assay [6]. In addition, the GI50 is 2.9 µM in assay [7], 2.46 µM in assay [8], 0.761 µM in assay [9] and 4.25 µM in assay [10]. Moreover, the TGI is above 100 µM in assay [1]; 9.64 µM in assay [2]; 19.8 µM in assay [3]; 25.7 µM in assay [4]; 7.12 µM in [5]; 42.7 µM in assay [6]. Moreover, the TGI in assay [7] came out at 16.7 µM; in [8], 33.9 µM; in assay [9], 29.4 µM; in [10] it was 23.8 µM.
Take `Cc1c(CN2CCC(Nc3ncnc4sc(CC(F)(F)F)cc34)CC2)ccc2c1cc(C#N)n2Cc1cn[nH]c1`: the GI50 in assay [1] is 0.832 µM and 0.896 µM; in assay [2], 8.97 µM and 9.33 µM; in assay [3], 2.72 µM and 3.06 µM; in assay [4], 2.32 µM and 4.04 µM; in [5], 10.4 µM; in assay [6], 5.07 µM and 6.1 µM. The GI50 in [7] is 1.94 µM and 2.74 µM; in assay [8] it was 2.62 µM and 3.24 µM; in assay [9], 0.883 µM and 1.14 µM; in [10], 4.65 µM and 3.16 µM. The total growth inhibition concentration (TGI) in [1] was 4.47 µM; in assay [2], 26.3 µM and 26.5 µM; in assay [3], 14.9 µM; in [4] it was 7.12 µM; in assay [5], 24 µM; in [6], 21.8 µM. Moreover, the TGI in assay [7] is 12.9 µM and 10.5 µM; in assay [8], 10.3 µM; in assay [9], 4.17 µM and 4.95 µM; in assay [10], 19.6 µM.
`Cn1c2ccccc2c2nnc(N/N=C/c3ccccn3)nc21`: the GI50 in assay [1] is 0.367 µM; in [2] it was 0.953 µM; in assay [3] it was 0.37 µM; in [4], 0.478 µM; in [5], 0.489 µM; in assay [6] it was 0.426 µM. Besides, the GI50 in assay [7] is 2.8 µM; in assay [8], 0.374 µM; in assay [9] it was 1.75 µM; in assay [10], 0.357 µM. Besides, the TGI was 16.6 µM in assay [1]; 16.9 µM in assay [2]; above 23.9 µM in [3]; 38.1 µM in assay [4]; above 33 µM in assay [5]; above 84.2 µM in assay [6]. Also, the TGI was above 42.3 µM in assay [7], above 100 µM in [8], above 39.6 µM in assay [9] and 14 µM in assay [10].
